Holding throughout (experiment): NCI anticancer screen, dose series, 48 h
Test [1] has as its system MDA-N.
Test [2] has as its system RPMI-8226 leukemia.
Test [3] relates to SNB-75 CNS.
Test [4] deals with A549 NSCLC.
Test [5] concerns SK-MEL-2 melanoma.
For test [6], the system named is HS 578T breast.
Test [7] has as its system CAKI-1 renal.
For test [8], the system named is M14 melanoma.
The subject of test [9] is RXF 393 renal.
The subject of test [10] is NCI-H226 lung.
Test [11] relates to SK-MEL-5 melanoma.
Test [12] relates to TK-10 renal.
Test [13] has as its system EKVX NSCLC.
For test [14], the system named is SK-MEL-28 melanoma.
Test [15] has as its system KM12 colon.
Test [16] has as its system NCI-H522 lung.

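Briefly, cells in 96-well plates were exposed to five compound concentrations for 48 h, and endpoints were estimated by linear interpolation. Here, GI50 denotes the concentration required for 50% inhibition of growth. TGI: concentration producing complete growth inhibition.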

Here are results for 15 compounds from PubChem BioAssay (NCI).

As for `CC1OC(OC2C(O)COC(OC3C(C)OC(OC4C(OC(=O)[C@]56CCC(C)(C)C[C@@H]5C5=CCC7[C@@]8(C)C[C@H](O)[C@H](OC9OC(CO)C(O)C(OC%10OC(CO)C(O)C(O)C%10O)C9O)[C@@](C)(CO)[C@@H]8CC[C@@]7(C)[C@]5(C)CC6)OCC(O)C4O)C(O)C3OC3OCC(O)C(O)C3O)C2O)C(O)C(O)C1O` (some centres not stated), the TGI was 7.24 µM in test [1]; 76.8 µM in test [2]; 30.9 µM in [3]; 4.29 µM in test [4]; 11.7 µM in test [5]; 34.8 µM in [6]. The TGI is 16.3 µM in test [7]; 3.58 µM in test [8]; 21.6 µM in test [9]; 25.1 µM in [10]; 15 µM in [11]; 22.7 µM in test [12]. For the same compound, the TGI in test [13] stood at 15.6 µM; in test [14], 5.17 µM; in test [15] it was 33.5 µM; in test [16], 26.4 µM.
With `CCN(CC)C(=S)SC1CCOP(=O)(N(CCCl)CCCl)N1C` (configuration not stated), the TGI is > 100 µM in test [1]; > 61.2 µM in test [2]; > 100 µM in test [3]; > 100 µM in [4]; 45.3 µM in test [5]; > 100 µM in test [6]. Also, the TGI in test [7] is > 86.8 µM; in test [8], > 54.1 µM; in [9] it was 76.1 µM; in test [10] it was > 97.3 µM; in test [11], 30.8 µM; in [12] it was > 100 µM. Moreover, the TGI was > 96.4 µM in test [13], 42.2 µM in [14], > 58.5 µM in [15] and 2.18 µM in test [16].
For `Cc1c(CCCl)c(N=[N+]=[N-])n2c(nc3ccccc32)c1C#N`, the TGI came to 3.12 µM in [1]; 2.33 µM in test [2]; 2.87 µM in [3]; 5.95 µM in [4]; 3.48 µM in [5]; 2.43 µM in [6]. The TGI is 3 µM in test [7]; 2.77 µM in test [8]; 2.85 µM in test [9]; 4.29 µM in [10]; 1.35 µM in [11]; 3.02 µM in [12]. Further, the TGI was found to be 4.4 µM in [13], 3.27 µM in test [14], 3.27 µM in test [15] and 0.44 µM in test [16].
Turning to `c1ccc2sc(C3(N4CCCCC4)CCCCCC3)cc2c1`, the TGI in test [1] is > 100 µM; in [2] it was 28.7 µM; in [3], 42 µM; in [4], 80.9 µM; in [5], 68.4 µM; in test [6], 42 µM. The TGI in test [7] is 64.2 µM; in [8], 67.2 µM; in test [9], 28.6 µM; in [10], 33.7 µM; in [11] it was 31.3 µM; in test [12], 49.2 µM. The TGI was 47.2 µM in test [13], 21.6 µM in [14], 31.2 µM in test [15] and 32.8 µM in test [16].
Turning to `Cc1ccc(-n2c(Cn3nnc(-c4cccnc4)n3)nn(C3OC(COC(=O)c4ccccc4)C(OC(=O)c4ccccc4)C3OC(=O)c3ccccc3)c2=S)cc1` (configuration not stated), the TGI in [1], in test [2], in test [3], in [4], in [5] and in test [6] was > 100 µM in each case. Moreover, the TGI in test [7], in [8], in test [9], in test [10], in [11] and in [12] was > 100 µM each time. Moreover, the TGI in [13], in [14], in test [15] and in test [16] was > 100 µM each time.
For `CCOC(=O)C(=O)N=Nc1nc2c(O)c3ccccc3c(O)c2s1`, the TGI in test [1] was 3.2 µM; in test [2] it was > 19.9 µM; in test [3], 9.02 µM; in test [4], 17.6 µM; in test [5], 8.98 µM; in test [6], 10.5 µM. Further, the TGI in test [7] worked out at 35.6 µM; in test [8], 4.7 µM; in [9] it was 9.55 µM; in test [10] it was 30.2 µM; in test [11], 3.62 µM; in [12], 39.6 µM. In addition, the TGI stood at 19.4 µM in test [13], 6.38 µM in test [14], 20.8 µM in test [15] and 8.79 µM in [16].
For `COc1cc2c(cc1OC)C1(c3ccccc3)CN(C2)Cc2cc(OC)c(OC)cc21`, the TGI in test [1] is > 100 µM; in [2] it was 80.2 µM; in test [3] it was 92.3 µM; in [4] it was > 100 µM; in [5], 70.1 µM; in [6], 75.5 µM. Besides, the TGI in test [7] is > 100 µM; in test [8] it was 59.6 µM; in test [9], 60.3 µM; in [10] it was 91.4 µM; in [11] it was 53.3 µM; in test [12], > 100 µM. Also, the TGI in [13], in test [14], in test [15] and in test [16] was > 100 µM in each case.
Regarding `CN(C)CCNC(=O)c1cccc2nc3cccc(F)c3nc12`, the TGI worked out at 3.13 µM in [1]; 5.65 µM in [2]; 13.2 µM in [3]; 2.85 µM in test [4]; 4.86 µM in test [5]; 9.27 µM in test [6]. Also, the TGI in test [7] worked out at 15.8 µM; in [8], 4.58 µM; in [9] it was 4.11 µM; in [10] it was 3.21 µM; in test [11], 2.38 µM; in [12] it was 6.45 µM. Besides, the TGI in test [13] amounted to 6.16 µM; in test [14], 11.5 µM; in [15] it was 8.43 µM; in test [16] it was 2.74 µM.
Take `N#CC(C#N)=C(N)/C(C#N)=C/c1cc(O)c(O)c(Br)c1`: the TGI in [1], in [2], in test [3], in test [4], in [5] and in [6] was > 100 µM in each case. In addition, the TGI was > 100 µM in test [7]; > 100 µM in test [8]; > 100 µM in [9]; > 79.1 µM in test [10]; > 100 µM in test [11]; > 100 µM in [12]. The TGI in test [13], in test [14], in test [15] and in [16] was > 100 µM each time.
Regarding `Cn1cc(C[C@@H](N)C(=O)O)c2ccccc21`, the TGI in test [1], in test [2], in test [3], in [4], in test [5] and in [6] was > 100 µM throughout. Moreover, the TGI in test [7], in [8], in test [9], in test [10], in [11] and in [12] was > 100 µM each time. The TGI in test [13], in test [14], in test [15] and in [16] was > 100 µM throughout. The GI50 in [6] and in [11] was > 100 µM throughout.
On to `CCCC(=O)OC[n+]1cccc(-c2c(COC(=O)NC(C)C)c(COC(=O)NC(C)C)c3n2CCC3)c1`, for which the TGI in test [1], in [2], in test [3], in test [4], in [5] and in test [6] was > 100 µM throughout. For the same compound, the TGI was 46 µM in test [7]; > 100 µM in test [8]; > 56.7 µM in test [9]; > 100 µM in test [10]; > 100 µM in test [11]; > 100 µM in [12]. In addition, the TGI in [13] is > 100 µM; in test [14], > 100 µM; in test [15], > 100 µM; in test [16], 71.8 µM.
As to `C#CCOC(=O)C(N)CSSCC(N)C(=O)O` (configuration not stated), the TGI in test [1], in test [2], in test [3], in test [4], in test [5] and in test [6] was > 100 µM in each case. Besides, the TGI in test [7], in test [8], in test [9], in [10], in test [11] and in [12] was > 100 µM throughout. In addition, the TGI in test [13], in [14], in test [15] and in test [16] was > 100 µM each time.
With `CC(C)N=C(NC#N)NS(=O)(=O)c1cnccc1Nc1ccc(Cl)cc1`, the TGI in [1], in test [2], in test [3], in test [4], in test [5] and in test [6] was > 100 µM throughout. Also, the TGI in test [7], in [8], in test [9], in [10], in [11] and in test [12] was > 100 µM each time. In addition, the TGI in test [13], in test [14], in test [15] and in test [16] was > 100 µM in each case.
With `COC(=O)C(Cc1ccccc1I)C1=CCC2(CC1)OCCO2` (configuration not stated), the TGI in test [1] was 67.4 µM; in [2] it was > 100 µM; in test [3] it was 57.4 µM; in test [4], 82.8 µM; in test [5], 75.4 µM; in test [6], 77.5 µM. Moreover, the TGI in test [7] is > 100 µM; in test [8] it was 50.4 µM; in test [9], 42.5 µM; in test [10] it was > 100 µM; in test [11], 34.1 µM; in [12], > 100 µM. Further, the TGI in test [13] was > 100 µM; in test [14], > 100 µM; in test [15], 76.2 µM; in test [16], 53.7 µM.
For the compound `O=[N+]([O-])c1cccc2nc3ccccc3c(NCCCN3CCOCC3)c12`, the TGI in test [1] was 0.0149 µM; in test [2], 0.187 µM; in test [3], 0.114 µM; in test [4], 0.0674 µM; in [5], 0.0362 µM; in test [6] it was > 100 µM. For the same compound, the TGI stood at 0.0785 µM in test [7]; 0.0233 µM in [8]; 0.0294 µM in test [9]; 0.0501 µM in [10]; 0.0263 µM in [11]; 0.149 µM in test [12]. Moreover, the TGI in test [13] came out at 0.0559 µM; in test [14], 0.138 µM; in test [15], 0.054 µM; in test [16] it was 0.0936 µM.
